The values that follow come from patent publication US6191124A, “Methanol derivatives for treatment of retroviral infections especially HIV infections” (priority 1997, dated 2001).

The target of the test is HIV-1 protease (Human immunodeficiency virus type 1 group M subtype B, UniProt P04585). Put plainly: HIV protease screening assay (fluorescently labeled biotinylated substrate, streptavidin beads), percent inhibition. It counts as biochemical. Here is the method: The HIV protease screening assay is based on fluorescently labeled substrate which can be resolved from nonlabeled cleavage product using special beads coated with streptavidin. The substrate is biotinylated at the amino terminal arginine and fluorescently labeled with fluorescein isothiocynate (FITC) at the carboxyl terminal lysine. This assay has been employed to detect novel, nonpeptidic inhibitors of HIV-1 protease. Substrate (20 μl of 0.2 μM), sample (10 μl of desired concentration), and enzyme (10 μl of 0.1 μM) are added to a 96 well pandex plate. The assay is run in 0.1 M sodium acetate buffer at pH 5.5 in the presence of 1.0 M sodium chloride and 0.05% NP-40 with incubated in the dark for one hour at room temperature. Strepavidin coated polystyrene beads {40 μl of 0.1% (w/v)} are added and the plate is incubated in the dark for an additional half hour. The labeled cleavage product is separated from the unreacted substrate via filtration and is read on the Idexx screen machine. The data are analyzed by appropriate computer algorithms to ascertain percent inhibition values.

Setting [1] is: 1.1 μM (Table 6), read-out: PROTEASE INHIBITION
The mark [2] stands for this setting: 3.3 μM (Table 6), read-out: PROTEASE INHIBITION
Setting [3] is: 10 μM (Table 2), read-out: % Protease Inhibition.
[4] abbreviates: 1.1 μM (Table 7), read-out: PROTEASE INHIBITION
Where [5] appears, read: 3.3 μM (Table 7), read-out: PROTEASE INHIBITION
Setting [6] is: 10 μM (Table 7), read-out: PROTEASE INHIBITION
The mark [7] stands for this setting: 3.3 μM (Table 9), read-out: PROTEASE INHIBITION
Where [8] appears, read: 10 μM (Table 9), read-out: PROTEASE INHIBITION
Where [9] appears, read: 1.1 μM (Table 8), read-out: PROTEASE INHIBITION
The mark [10] stands for this setting: 3.3 μM (Table 8), read-out: PROTEASE INHIBITION
[11] abbreviates: 10 μM (Table 8), read-out: PROTEASE INHIBITION
The mark [12] stands for this setting: 3.3 μM (Table 5), read-out: % HIV Protease Inhibition.
The mark [13] stands for this setting: 10 μM (Table 5), read-out: % HIV Protease Inhibition.

Like-named read-outs stand apart in the source and are kept apart here. Bounds are passed on as bounds.

As for `OC(CCc1ccco1)c1cnc2sc3c(n12)CCCCC3` (stereo not drawn) [Example 39, α-[2-(2-Furanyl)ethyl]-6,7,8,9-tetrahydro-5H-cyclohept[d]imidazo[2,1-b]thiazol-3-methanol], the inhibition at 1.1 µM under setting [1] stood at 54%. The inhibition at 3.3 µM under setting [2] was 85%.
Consider `OC(CCc1ccc2ccccc2c1)c1cnc2sc3c(n12)CCCCC3` (stereo not drawn) [Example 37, α-[2-(2-Naphthalenyl)ethyl]-6,7,8,9-tetrahydro-5H-cyclohept[d]imidazo[2,1-b]thiazol-3-methanol], for which the inhibition at 1.1 µM under setting [1] amounted to 51%. Moreover, the inhibition at 3.3 µM under setting [2] stood at 80%.
`Cc1csc2ncc(C(O)CC(C)c3ccccc3)n12` (stereo not drawn) [Example 6, 3-Methyl-α-(2-phenylpropyl)imidazo[2,1-b]thiazole-5-methanol]: the inhibition at 10 µM under setting [3] turned out to be 51%. Besides, the “% Protease Inhibition” value is given as below 10% (1.1-1.3 μM (Table 2)) and below 10% (3.3-3.7 μM (Table 2)).
Take `COc1ccc(/C=C/C(O)c2cnc3sc4c(n23)CCCCC4)cc1` (stereo not drawn) [Example 36, α-[2-(4-Methoxyphenyl)ethenyl]-6,7,8,9-tetrahydro-5H-cyclohept-[d]imidazo[2,1-b]thiazol-3-methanol]: under setting [4], the inhibition at 1.1 µM came to 15%. Besides, the inhibition at 3.3 µM under setting [5] was found to be 52%. The inhibition at 10 µM under setting [6] came out at 42%.
On to `CN(C)c1ccc(CCC(O)c2cnc3sc4c(n23)CCCCC4)cc1` (stereo not drawn) [Example 29], for which the inhibition at 1.1 µM under setting [1] stood at 24%. Also, under setting [2], the inhibition at 3.3 µM is 70%.
Regarding `Cc1csc2ncc(C(O)CCc3ccccc3)n12` (stereo not drawn) [Example 8, 3-Methyl-α-(2-phenylethyl)imidazo[2,1-b]thiazole-5-methanol], the inhibition at 10 µM under setting [3] is 79%. Further, the “% Protease Inhibition” value is below 10% (1.1-1.3 μM (Table 2)) and 32% (3.3-3.7 μM (Table 2)).
For the compound `Cc1sc2ncc(C(O)/C=C/c3ccco3)n2c1C` (stereo not drawn) [Example 41, α-[2-(2-Furanyl)ethenyl]2,3-dimethylimidazo[2,1-b]thiazol-3-methanol], the inhibition at 3.3 µM under setting [7] stood at 19%. Besides, the inhibition at 10 µM under setting [8] is 81%.
For `OC(CCc1cccc(F)c1F)c1cnc2sc3c(n12)CCCCC3` (stereo not drawn) [Example 34, α-[2-(2,3-Difluorophenyl)ethyl]-6,7,8,9-tetrahydro-5H-cyclohept[d]imidazothiazol-3-methanol], the inhibition at 1.1 µM under setting [1] came out at 58%. Further, the inhibition at 3.3 µM under setting [2] is 99%.
For `OC(CCc1cccc(F)c1)c1cnc2sc3c(n12)CCCCC3` (stereo not drawn) [Example 23, α-[2-(3-Fluorophenyl)ethyl]-6,7,8,9-tetrahydro-5H-cyclohept[d]imidazo[2,1-b]thiazol-3-methanol], in that order: 35% and 64%.
For `CN(C)c1ccc(/C=C/C(O)c2cnc3sc4c(n23)CCCCC4)cc1` (stereo not drawn) [Example 30, α-[2-(4-Dimethylaminophenyl)ethenyl]-6,7,8,9-tetrahydro-5H-cyclohept[d]-imidazo[2,1-b]thiazol-3-methanol], the inhibition at 3.3 µM under setting [5] was below 10%. For the same compound, under setting [6], the inhibition at 10 µM stood at 24%.
For `OC(/C=C/c1ccc(F)cc1)c1cnc2sc3c(n12)CCCCC3` (stereo not drawn) [Example 25, α-[2-(4-Fluorophenyl)ethenyl]-6,7,8,9-tetrahydro-5H-cyclohept[d]imidazo[2,1-b]thiazol-3-methanol], under setting [4], the inhibition at 1.1 µM was determined as 23%. In addition, the inhibition at 3.3 µM under setting [5] was found to be 33%. For the same compound, the inhibition at 10 µM under setting [6] was 21%.
For the compound `Cc1sc2ncc(C(O)C#Cc3ccccc3)n2c1C` (stereo not drawn) [Example 1, 2,3-Dimethyl-α-(2-phenylethynyl)imidazo-[2,1-b]thiazole-5-methanol], the inhibition at 10 µM (10 μM (Table 1), read-out: % Protease Inhibition) was 16%. In addition, the “% Protease Inhibition” value (3.3-3.7 μM (Table 1)) is listed as below 10%.
For `COc1ccc(CCC(O)c2cnc3sc4c(n23)CCCCC4)cc1` (stereo not drawn) [Example 35, α-[2-(4-methoxyphenyl)ethyl]-6,7,8,9-tetrahydro-5H-cyclohept-[d]imidazo[2,1-b]thiazol-3-methanol], the inhibition at 1.1 µM under setting [1] was determined as 63%. Besides, the inhibition at 3.3 µM under setting [2] was 81%.
`Cc1sc2ncc(C(O)CCc3ccco3)n2c1C` (stereo not drawn) [Example 42]: the inhibition at 1.1 µM under setting [9] is below 10%. The inhibition at 3.3 µM under setting [10] stood at 46%. Further, the inhibition at 10 µM under setting [11] is 92%.
With `OC(/C=C/c1cccc(F)c1)c1cnc2sc3c(n12)CCCCC3` (stereo not drawn) [Example 22, α-[2-(3-Fluorophenyl)ethenyl]-6,7,8,9-tetrahydro-5H-imidazo[2,1-b]thiazole-3-methanol], the inhibition at 1.1 µM under setting [4] came out at 24%. The inhibition at 3.3 µM under setting [5] came out at 57%. The inhibition at 10 µM under setting [6] was 66%.
Turning to `OC(CCc1ccccc1)c1cnc2sc3ccccc3n12` (stereo not drawn) [Example 18, α-(2-phenylethyl)-imidazo[2,1-b]benzothiazole-3-methanol], the inhibition at 3.3 µM under setting [12] turned out to be 28%. In addition, the inhibition at 10 µM under setting [13] was 94%.
In the same order, the values of `Cc1ccc2c(c1)sc1ncc(C(O)CCc3ccccc3)n12` (stereo not drawn) [Example 19, 7-Methyl-α-(2-phenylethyl)imidazo[2,1-b]benzothiazole-3-methanol] are 59% and 92%.
In the same order, the values of `COc1ccc2c(c1)sc1ncc(C(O)CCc3ccccc3)n12` (stereo not drawn) [Example 21, 7-Methoxy-α-(2-phenylethyl)imidazo[2,1-b]benzothiazole-3-methanol] are 80% and 93%.
As for `Cc1ccc(S(=O)(=O)Nc2ccccc2CCC(O)c2cnc3sc(C)c(C)n23)cc1` (stereo not drawn) [Example 33], under setting [9], the inhibition at 1.1 µM is below 10%. The inhibition at 3.3 µM under setting [10] is 52%. For the same compound, the inhibition at 10 µM under setting [11] was 97%.
Turning to `Cc1ccc(S(=O)(=O)Nc2cccc(/C=C/C(O)c3cnc4sc(C)c(C)n34)c2)cc1` (stereo not drawn) [Example 32], the inhibition at 3.3 µM under setting [7] is below 10%. The inhibition at 10 µM under setting [8] is 15%.
`Cc1csc2ncc(C(C)(O)CCc3ccccc3)n12` (stereo not drawn) [Example 7, α,3-Dimethyl-α-(2-phenylethyl)imidazo[2,1-b]thiazole-5-methanol]: for the setting “10 μM (Table 3), read-out: % Protease Inhibition”, the inhibition at 10 µM was determined as 14.5%. In addition, the “% Protease Inhibition” value (1-1.2 μM (Table 3)) was below 10% and the “% Protease Inhibition” value (3.3-3.7 μM (Table 3)) is reported as below 10%.
With `OC(CCc1cc(F)cc(F)c1)c1cnc2sc3c(n12)CCCCC3` (stereo not drawn) [Example 28, α-[2-(3,5-Difluorophenyl)ethyl]-1-6,7,8,9-tetrahydro-5H-cyclohept[d]-imidazothiazol-3-methanol], the inhibition at 1.1 µM under setting [1] came out at 64%. In addition, the inhibition at 3.3 µM under setting [2] stood at 88%.
For `OC(CCc1cccc(Br)c1)c1cnc2sc3c(n12)CCCCC3` (stereo not drawn) [Example 26, α-[2-(3-Bromophenyl)ethyl]-6,7,8,9-tetrahydro-5H-cyclohept[d]imidazo-[2,1-b]thiazol-3-methanol], in that order: 4.8% and 80%.
With `OC(/C=C/c1ccco1)c1cnc2sc3c(n12)CCCCC3` (stereo not drawn) [Example 38, α-[2-(2-Furanyl)ethenyl]-6,7,8,9-tetrahydro-5H-cyclohept[d]imidazo[2,1-b]thiazol-3-methanol], the inhibition at 1.1 µM under setting [4] was 12%. Also, under setting [5], the inhibition at 3.3 µM came to 60%. Also, under setting [6], the inhibition at 10 µM was found to be 98%.
As to `Cc1ccc(S(=O)(=O)Nc2cccc(CCC(O)c3cnc4sc(C)c(C)n34)c2)cc1` (stereo not drawn) [Example 31], under setting [9], the inhibition at 1.1 µM turned out to be 15%. The inhibition at 3.3 µM under setting [10] worked out at 68%. For the same compound, the inhibition at 10 µM under setting [11] worked out at 98%.
